The target of experiment [1] is DYRK1A (HT-497, 6×His tagged rat truncated DYRK1A isoform X1 residues 1-497) (Rattus norvegicus (Rat), UniProt Q63470). Briefly: DYRK1A ELISA assay (HT-PRD phosphorylation). The class given is biochemical. The following applies: 100 µM ATP, 5 ng HT-497, 30 min at 30° C. As to the method:
Compounds of Table 1, above, were examined in vitro for activity against DYRK1A, DYRK1B, DYRK2 via an ELISA assay.
(§1) DYRK1A assay. […] After blocking, wells were washed extensively with dilution buffer before subjecting to phosphorylation. […] At the end point, wells were washed with ˜350 μl dilution buffer three times to terminate the reaction. […] Each point was run in quadruplicate with DMSO present in all assays at 0.2% final concentration. […] HT-PRD phosphorylation was subsequently determined by the sandwich antibody staining protocol, first with 100 μl mouse mAb 3D3 specific for detecting DYRK1A-phosphorylated PRD (60 min at room temperature) then with 100 μl alkaline phosphatase (AP)-linked anti-mouse secondary antibody (60 min at room temperature), followed by colorimetric reaction with 100 μl PNPP solution (PNPP substrate tablet, Thermo Fisher). […] The readings were then recorded for subsequent IC50 calculation. The DYRK1A assay protocol can also support DYRK1B and DYRK2 phosphorylation reactions in the enzyme concentration-dependent manner; therefore, the method was adapted for measuring the activity of candidate compounds against DYRK1B and DYRK2. For DYRK2, the reactions were performed as described above with 6 ng HT-DYRK2 (6×His tagged full-length human DYRK2 isoform 1). For DYRK1B, the assays were also similarly conducted but with 70 ng GST-DYRK1B (glutathione S-transferase tagged full length human DYRK1B isoform p65) and an extended kinase reaction time of 60 min.
Dilution factors for both mAb 3D3 and secondary antibody were pre-determined for each batch of antibody to ensure that neither antibody was limiting in the assay.
(§2) Data transformation, calculation, plotting, curve fitting, and IC 50 calculation were performed in KaleidaGraph (http://www.synergy.com/wordpress_650164087; Mac version 4.1). Data was corrected for background (readings from wells with only PNPP) before subsequent manipulations. […] The resulting residual activity was then plotted against its corresponding inhibitor concentrations in semi-log graph and the plot was fit to the sigmoidal equation, y=a+(b−a)/(1+(x/c)^d), for IC50 calculation.
(ELISA stands for enzyme-linked immunosorbent assay.)

The target in experiment [2] is DYRK1B (GST tagged full length human DYRK1B isoform p65) (Homo sapiens (Human), UniProt Q9Y463). Briefly: DYRK1B ELISA assay. The conditions noted are these: 70 ng GST-DYRK1B, kinase reaction time 60 min. The class given is biochemical. As to the method: as §1, §2
DYRK1B (GST tagged full length human DYRK1B isoform p65), sequence (Q9Y463 other isoform, or with tags, fused parts or gaps): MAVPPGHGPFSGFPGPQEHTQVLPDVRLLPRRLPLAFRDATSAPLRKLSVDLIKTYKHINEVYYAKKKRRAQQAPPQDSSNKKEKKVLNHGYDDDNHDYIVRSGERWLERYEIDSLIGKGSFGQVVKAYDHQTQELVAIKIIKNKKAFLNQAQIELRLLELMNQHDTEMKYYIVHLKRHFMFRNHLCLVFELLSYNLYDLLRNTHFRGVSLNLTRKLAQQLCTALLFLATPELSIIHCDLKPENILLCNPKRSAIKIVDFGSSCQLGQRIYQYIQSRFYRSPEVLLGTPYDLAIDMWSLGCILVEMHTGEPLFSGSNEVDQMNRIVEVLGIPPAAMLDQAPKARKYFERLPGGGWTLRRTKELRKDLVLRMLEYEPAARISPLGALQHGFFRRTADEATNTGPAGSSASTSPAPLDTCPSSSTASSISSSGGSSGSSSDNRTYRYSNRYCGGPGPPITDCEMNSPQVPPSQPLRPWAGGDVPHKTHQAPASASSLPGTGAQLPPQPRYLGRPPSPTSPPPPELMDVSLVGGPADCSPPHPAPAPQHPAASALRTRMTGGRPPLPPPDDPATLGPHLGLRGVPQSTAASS
Compounds of Table 1, above, were examined in vitro for activity against DYRK1B, via an ELISA assay.

Experiment [3] concerns MOG35-55-induced chronic progressive Experimental Autoimmune Encephalomyelitis (EAE). Briefly: MOG35-55-induced murine model of chronic progressive EAE. The following applies: for activity in the EAE model (reference compounds): reference compound. The class given is in vivo, mice. An excerpt: Compound 40 of Table 1 was examined for application in neurodegenerative disorders using a MOG35-55-induced murine model of chronic progressive Experimental Autoimmune Encephalomyelitis (EAE), an inflammation model predictive for multiple sclerosis (MS).
Without being bound by theory, the present inventors note that compound 40 could have a peripheral immunomodulation effect and an overall neuroprotective effect, which could have advantageous implications for the treatment of neurodegenerative disorders like Alzheimer's disease and Multiple Sclerosis.

For the next experiment, the target named is DYRK2 (Homo sapiens (Human), UniProt Q92630). The conditions noted are these: literature value; cited from earlier work.
DYRK2, sequence (Q92630 whole entry, species assumed): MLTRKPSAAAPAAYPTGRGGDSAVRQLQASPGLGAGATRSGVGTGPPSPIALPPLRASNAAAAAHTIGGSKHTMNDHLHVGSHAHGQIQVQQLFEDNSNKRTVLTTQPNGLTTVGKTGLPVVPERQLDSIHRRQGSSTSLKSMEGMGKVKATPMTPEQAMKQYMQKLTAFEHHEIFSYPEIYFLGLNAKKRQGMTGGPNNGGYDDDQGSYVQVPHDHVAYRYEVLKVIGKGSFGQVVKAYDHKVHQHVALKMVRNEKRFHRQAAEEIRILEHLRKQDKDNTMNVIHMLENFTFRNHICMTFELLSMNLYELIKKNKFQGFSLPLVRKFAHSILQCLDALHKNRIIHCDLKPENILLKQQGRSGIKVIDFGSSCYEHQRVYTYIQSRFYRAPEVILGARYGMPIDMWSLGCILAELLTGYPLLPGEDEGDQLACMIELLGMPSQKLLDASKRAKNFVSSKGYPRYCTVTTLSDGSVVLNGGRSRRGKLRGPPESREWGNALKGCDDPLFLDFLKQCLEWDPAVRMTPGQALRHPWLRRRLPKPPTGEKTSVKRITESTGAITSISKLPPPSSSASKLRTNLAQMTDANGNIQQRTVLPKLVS
The mark [4] stands for this setting: twice daily intranasal administration, 15 mg/kg.

What is called IC50 is the concentration needed to halve the response being measured. On to `O=C(O[C@@H]1Cc2c(O)cc(O)cc2O[C@H]1c1ccc(O)c(O)c1)c1cc(O)c(O)c(O)c1F` [Compound 55, (2S,3R)-2-(3,4-dihydroxyphenyl)-5,7-dihydroxychroman-3-yl 2-fluoro-3,4,5-trihydroxybenzoate], for which the IC50 was less than 100 nM in experiment [1] and more than 100 nM in experiment [2].
Taken in the same sequence, the figures for `O=C(O[C@@H]1Cc2c(O)cc(O)cc2O[C@H]1c1cc(O)c(O)c(O)c1)c1c(F)c(O)c(O)c(O)c1F` [Compound 51, (2S,3R)-5,7-dihydroxy-2-(3,4,5-trihydroxyphenyl)chroman-3-yl 2,6-difluoro-3,4,5-trihydroxybenzoate] were less than 100 nM and less than 100 nM.
For `O=C(O[C@@H]1Cc2c(O)cc(O)cc2O[C@H]1c1cc(O)c(O)c(O)c1)c1cc(O)c(O)c(O)c1F` [Compound 40, (2S,3R)-5,7-dihydroxy-2-(3,4,5-trihydroxyphenyl)chroman-3-yl 2-fluoro-3,4,5-trihydroxybenzoate], the “axons and myelin during chronic EAE” value in experiment [3] (Bielschowsky silver staining (neurofilaments), LFB staining (myelin)) is “preserved axons and myelin”. Besides, in experiment [3] (compared to the vehicle control group), the “spinal cord inflammation, hematoxylin and eosin staining” value was “significant spinal cord inflammation reductions”. In addition, the “lesion severity scores, histopathology of spinal cord section” value in experiment [3] (treated intranasally, compared to the other treatment groups, FIG. 2) is given as “significant (p<0.001) reductions in lesion severity scores”. Also, in experiment [3] (setting [4]), the “reduction of brain IFNγ” value is given as 90% and the “reduction of brain IL-17” value worked out at 79%. Besides, the “effect on disease course (EAE)” value in experiment [3] (twice daily intranasal administration, 15 mg/kg, FIG. 1) is given as “reversal of the disease”. In experiment [1], the IC50 is less than 100 nM. For the same compound, the IC50 in experiment [2] was less than 100 nM.
As for `O=C(O[C@@H]1Cc2c(O)cc(O)cc2O[C@@H]1c1cc(O)c(O)c(O)c1)c1cc(O)c(O)c(O)c1` [Compound 3, (2R,3R)-5,7-dihydroxy-2-(3,4,5-trihydroxyphenyl)chroman-3-yl 3,4,5-trihydroxybenzoate, reference compound], the “activity in the EAE model (reference compounds)” value in experiment [3] (FIG. 1) is listed as “no significant activity”.
Take `CCCCCCCCc1ccc(CCC(N)(CO)CO)cc1` [FTY720, Fingolimod, reference compound]: in experiment [3] (FIG. 1), the “activity in the EAE model (reference compounds)” value is on record as “reversal of the disease”.
Consider `CS(=O)(=O)Nc1ccc(C(=O)O[C@H]2Cc3c(O)cc(O)cc3O[C@@H]2c2ccc(O)c(O)c2)cc1O` [Compound 30, (2R,3S)-2-(3,4-dihydroxyphenyl)-5,7-dihydroxychroman-3-yl 3-hydroxy-4-(methylsulfonamido)benzoate], for which the IC50 in experiment [1] is more than 1000 nM.
The same measure, in the same setting: the result for `O=C(O[C@@H]1Cc2ccccc2O[C@H]1c1cc(O)c(O)c(O)c1)c1cc(O)c(O)c(O)c1` [Compound 39, (2S,3R)-2-(3,4,5-trihydroxyphenyl)chroman-3-yl 3,4,5-trihydroxybenzoate] reads more than 100 nM; that for `COc1cc(C(=O)N[C@H]2Cc3c(O)cc(O)cc3O[C@@H]2c2cc(O)c(O)c(O)c2)cc(O)c1O` [Compound 10, N-((2R,3S)-5,7-dihydroxy-2-(3,4,5-trihydroxyphenyl)chroman-3-yl)-3,4-dihydroxy-5-methoxybenzamide], more than 1000 nM; that for `COc1cc(C(=O)O[C@H]2Cc3c(O)cc(O)cc3O[C@@H]2c2cc(O)c(O)c(O)c2)cc(O)c1O` [Compound 18, (2R,3S)-5,7-dihydroxy-2-(3,4,5-trihydroxyphenyl)chroman-3-yl 3,4-dihydroxy-5-methoxybenzoate], more than 100 nM.
Same read-out and setting: as for `Cc1cc(O)c(O)cc1[C@@H]1Oc2cc(O)cc(O)c2C[C@H]1OC(=O)c1cc(O)c(O)c(O)c1F` [Compound 52, (2S,3R)-2-(4,5-dihydroxy-2-methylphenyl)-5,7-dihydroxychroman-3-yl 2-fluoro-3,4,5-trihydroxybenzoate], the figure is more than 100 nM.
Still for that read-out and setting: as for `CCNC(=O)Oc1cc(C(=O)O[C@@H]2Cc3c(O)cc(O)cc3O[C@@H]2c2cc(O)c(O)c(O)c2)cc(O)c1O` [Compound 12, (2R,3R)-5,7-dihydroxy-2-(3,4,5-trihydroxyphenyl)chroman-3-yl 3-((ethylcarbamoyl)oxy)-4,5-dihydroxybenzoate], the figure is more than 100 nM; as for `CCNC(=O)Oc1c(O)cc([C@H]2Oc3cc(O)cc(O)c3C[C@H]2OC(=O)c2cc(O)c(O)c(O)c2)cc1O` [Compound 72, (2R,3R)-2-(4-((ethylcarbamoyl)oxy)-3,5-dihydroxyphenyl)-5,7-dihydroxychroman-3-yl 3,4,5-trihydroxybenzoate], more than 100 nM; as for `COc1c(O)c(O)c(F)c(C(=O)O[C@@H]2Cc3c(O)cc(O)cc3O[C@H]2c2ccc(O)c(O)c2)c1F` [Compound 64, (2S,3R)-2-(3,4-dihydroxyphenyl)-5,7-dihydroxychroman-3-yl 2,6-difluoro-3,4-dihydroxy-5-methoxybenzoate], more than 100 nM.
In the case of `COc1cc(N2CCN(C)CC2)ccc1Nc1nccc(-c2cn(C)c3cnccc23)n1` [AZ-191], the IC50 on DYRK2 was 1890 nM.
As for `O=C(O[C@@H]1Cc2c(O)cc(O)cc2O[C@H]1c1cc(O)c(O)c(O)c1)c1cc(OC(F)F)c(O)c(O)c1F` [Compound 65, (2S,3R)-5,7-dihydroxy-2-(3,4,5-trihydroxyphenyl)chroman-3-yl 5-(difluoromethoxy)-2-fluoro-3,4-dihydroxybenzoate], the 50% inhibitory concentration (IC50) in experiment [1] is more than 100 nM.
Same read-out and setting: as for `O=C(O[C@@H]1Cc2c(O)cc(O)cc2O[C@@H]1c1cc(O)c(O)c(O)c1)c1ccc(O)c(O)c1` [Compound 11, (2R,3R)-5,7-dihydroxy-2-(3,4,5-trihydroxyphenyl)chroman-3-yl 3,4-dihydroxybenzoate], the figure is more than 100 nM.
Still for that read-out and setting: as for `O=C(O[C@@H]1Cc2c(O)cc(O)cc2O[C@H]1c1cc(O)c(O)c(O)c1)c1ccc(O)c(O)c1O` [Compound 38, (2S,3R)-5,7-dihydroxy-2-(3,4,5-trihydroxyphenyl)chroman-3-yl 2,3,4-trihydroxybenzoate], the figure is more than 100 nM; as for `O=C(O[C@@H]1Cc2c(O)cc(O)cc2O[C@H]1c1cc(O)c(O)c(O)c1)c1cc(O)c(O)cc1F` [Compound 41, (2S,3R)-5,7-dihydroxy-2-(3,4,5-trihydroxyphenyl)chroman-3-yl 2-fluoro-4,5-dihydroxybenzoate], more than 100 nM; as for `O=C(O[C@@H]1Cc2c(O)cc(O)cc2O[C@H]1c1cc(O)c(O)cc1F)c1cc(O)c(O)c(O)c1F` [Compound 48, (2S,3R)-2-(2-fluoro-4,5-dihydroxyphenyl)-5,7-dihydroxychroman-3-yl 2-fluoro-3,4,5-trihydroxybenzoate], more than 100 nM.
Still for that read-out and setting: the result for `O=C(N[C@H]1Cc2c(O)cc(O)cc2O[C@@H]1c1cc(O)c(O)c(O)c1)c1ccc(O)c(O)c1` [Compound 15, N-((2R,3S)-5,7-dihydroxy-2-(3,4,5-trihydroxyphenyl)chroman-3-yl)-3,4-dihydroxybenzamide] reads more than 1000 nM; that for `O=C(O[C@@H]1Cc2cccc(O)c2C[C@H]1c1cc(O)c(O)c(O)c1)c1cc(O)c(O)c(O)c1` [Compound 33, (2R,3S)-5-hydroxy-3-(3,4,5-trihydroxyphenyl)-1,2,3,4-tetrahydronaphthalen-2-yl 3,4,5-trihydroxybenzoate], more than 100 nM.

These data come from US20240336588A1, “COMPOSITIONS AND METHODS FOR ANTIOXIDANT AND ANTI-INFLAMMATORY THERAPEUTICS” (AVANTI BIOSCIENCES INC., priority 2021, published 2024).
